Test results published in a melting point compilation (Tetko et al.; mined from patent text by program, amines drawn as free bases though some values may be those of a salt).

melting point [°C]	SMILES
> 300	COc1ccc2[nH]c3cc(C(=O)O)c4c(c3c2c1)C(=O)NC4=O
255 to 257	O=C(NCc1ccc(Cl)cc1)c1cnc2ccc(-c3ccccc3)cc2c1O
101	COc1cc(C)c2c(=O)c3c(C)c(Cl)ccc3oc2c1OC
102 to 103	Cc1cccc2c1nc(COc1ccc(Cl)cc1)n2CCC(C)C(=O)NCCCN1CCCCC1 (stereo not given)
114 to 115	Cc1ccc(C(=O)CCc2ccc(N3CCN(c4ccncc4)CC3)cc2)cc1
199 to 200	O=C(NCc1ccc(F)cc1)c1nc2n(c(=O)c1OCc1ccccc1)CCN2c1ccccc1
112 to 113	O=C1N(CCCOCc2ccccc2)c2ccccc2C12COc1cc3c(cc12)CCO3 (stereo not given)
160 to 161	Cn1c(=O)c2cccnc2n(C)c1=O
145 to 150	O=C(O)CN1CCCC(n2nc(-c3c(-c4ccccc4)nn4ccccc34)ccc2=O)C1=O (stereo not given)
184 to 186	COc1ccc2[nH]c(C(=O)NCCN(C)C)c(-c3ccccc3F)c2c1
139 to 140	CC(=O)N[C@@H](Cc1ccc(Oc2sc(C(N)=O)c3c2-c2c(cnn2C)CC3)cc1)C(=O)N1CCOCC1
165 to 168	CNC(=S)NS(=O)(=O)c1cc(CCNC(=O)c2cc(C(C)(C)C)ccc2OC)ccc1OC
155 to 160	COc1ccc(C(=O)Nc2ccc(C)c(C)c2)cc1NC(=S)Nc1cccc(C)c1
118 to 121	Cc1ccc(C(=O)c2ccc(CC#N)n2C)s1
170	O=S(=O)(Nc1cccc(C(=NO)c2cccnc2)c1)c1ccc(Cl)cc1
95 to 99	NC1=NC(c2cccc(-c3cccnc3F)c2)(c2ccc3c(c2)OC(F)(F)O3)C2=NCCCN12 (stereo not given)
172 to 174	NCc1c(CN(Cc2ccccc2)Cc2ccccc2)cccc1C(F)(F)C(F)(F)c1ccccc1
192 to 193	CSc1sc(C(N)=O)c2c1-c1sc(-c3ccccc3)cc1CC2
106 to 107	OCc1cnoc1-c1ccc(F)c(Cl)c1
60	CCN1CNS(=O)(=O)c2cc(Oc3cccc(C(C)O)c3)ccc21 (stereo not given)

melting point [°C]	SMILES
131 to 133	Cc1nc(-c2ccc(C(F)(F)F)cc2)oc1CSc1ccc(OCC(=O)O)cc1
80 to 82	CC1(Cc2ccc(Cl)c(Cl)c2)OC(=O)N(Cc2cc(C(F)(F)F)cc(C(F)(F)F)c2)C1=O (stereo not given)
228 to 230	N#Cc1cccc(-c2cnc3[nH]c(=O)n(CC4CCCCC4)c3n2)c1
146 to 148	Cc1ccc(C2(O)c3c(C)c(NC(=O)CC(C)(C)C)c(C)c(C)c3OC2(C)C)cc1 (stereo not given)
225 to 227	Oc1ccc2c(c1)COc1c-2cc2ccc(O)cc2c1-c1cccc(F)c1
209	COc1cc(N)c(Cl)cc1C(=O)N[C@H]1CCN(CCNC(=O)c2ccc(F)cc2)C[C@H]1OC (relative stereo)
88 to 90	CC(C)(C)OC(=O)[C@@H](C(N)c1ccccc1)[C@@H](O)C[C@@H](Cc1ccccc1)c1ncc2n1C(O)C(C)(C)C2=O (stereo not given in full)
220 to 223	O=C(Nc1ccc(Br)cc1-c1noc(=O)[nH]1)c1cccc(S(=O)(=O)N2CCOCC2)c1
98 to 100	COc1ccc(Cl)cc1CN(CCO)c1ncnc2c1ncn2C1OC(CO)C(O)C1O (stereo not given)
114 to 116	CN(C)CCC1CCCCN1CCN(C)C(=O)N1c2ccccc2C(=O)Nc2cccnc21 (stereo not given)
214 to 215	CN1CCC(c2c[nH]c3ccc(OS(=O)(=O)c4c(F)cccc4F)cc23)CC1
112	O=C(O)Cc1cccc(C(=O)c2cccs2)c1Cl
83 to 86	COc1cc(NC(=O)OC(C)(C)C)c(NC(=O)CC(=O)c2cccc(-n3ccnc3C)c2)cc1-c1ccccc1F
248 to 250	Cn1cc(C2=C(c3cn(CCCNC(N)=O)c4ccccc34)C(=O)NC2=O)c2ccccc21
172 to 174	C=CCN1C(=O)NC(C)=C(C(=O)OC(C)C)C1c1cccc([N+](=O)[O-])c1 (stereo not given)
200 to 202	Cc1ccc(-c2ccc(S(C)(=O)=O)cc2)n1-c1ccc(Br)cc1
166	O=C(O)CCCc1cc2cc(Cl)ccc2n1S(=O)(=O)c1ccc2ccccc2c1
75 to 76	CC(=O)n1c(SC(F)(F)F)cc(-c2ccc(F)cc2)c1-c1ccc(F)cc1
75 to 76	COc1cc(CCCC(O)C(=O)OC(C)C)ccc1OCc1nc(-c2ccco2)oc1C (stereo not given)
205	O=C1NC(=NC2CCCCC2)C(c2ccc(Br)cc2)N1c1ccc2[nH]cnc2c1 (stereo not given)

More lines, now with the values behind:

SMILES	melting point [°C]
COS(=O)(=O)CS(C)(=O)=O	101 to 104
Cc1cccc(C(=O)Nc2c[nH]nc2C(=O)NCCC(=O)O)n1	246 to 247
O=C(O)C=C(c1ccccc1)c1ccc([N+](=O)[O-])cc1	188 to 189
CC(C)(C)OC(=O)CC1CCC(=O)Nc2ccccc21 (stereo not given)	101 to 103
CCNC(=O)ON1C(=O)CCC1=O	131 to 133
CC(=O)OCC1=C(C(=O)O)N2C(=O)C(NC(=O)Cn3ccnc3S(C)=O)C2SC1 (stereo not given)	220
CNc1c(C)c(C)c(OC(C)=O)c(C)c1[N+](=O)[O-]	143 to 146
Cc1[nH]c(C=NNC(=O)c2ccc(O)cc2)c(C)c1Br	235
COC(=S)NC1(N=NC(C)(C)C)CCCCC1	79 to 82
CC(C)(C)ON=Cc1ncn2c1[C@@H]1CCCN1C(=O)c1c(Cl)cccc1-2	215 to 216
Oc1cccnc1SCc1ccccc1	103 to 104
C=C(C)C(=O)OC(c1ccccc1)(c1ccccc1)c1ccncc1	98.5 to 99.5
C1=C2NCCCN2Cc2ccccc2C1c1ccccc1 (stereo not given)	227 to 228
CC(C=CC1(O)C(C)=CC2(OCCO2)c2ccccc21)=CCO (stereo not given)	116 to 118
Nc1c(CC(=O)O)cccc1C(=O)c1ccc(F)cc1	136 to 137
CNC(=O)C(=N[C@@H](C)c1ccccc1)C(C)(C)C	120
ClCCN(CCCl)CCOc1ccc(Nc2c3ccccc3nc3c(OCCN(CCCl)CCCl)cccc23)cc1	105 to 106
CCC(CC)n1c(N)nc2c(Oc3c(C)cc(C)cc3C)nc(C)cc21	208 to 210
CC(C)(Br)C(=O)NCc1ccccc1	73.4 to 75.5
C=Cc1cnc([N+](=O)[O-])n1CC	45 to 47
Oc1ccc2c(c1)NCC2	115 to 120
CCNS(=O)(=O)c1ccc(NC(C)=O)cc1	90 to 91
CC(SC1COC(C2([N+](=O)[O-])C=CC(C(=O)Nc3ccccc3)=CC2)OC1)C(O)(Cn1cncn1)c1ccc(F)cc1F (stereo not given)	189
CC[C@@]1(O)C(=O)OCc2c1cc1n(c2=O)Cc2c-1nc1ccc(C)c3c1c2C(NC(C)=O)CN3 (stereo not given in full)	225 to 235
c1ccc2c(c1)NCc1cccn1-2	108 to 110
CSc1nc(C#N)c(C#N)nc1SC	139 to 142
O=C(N[C@H](CN1CCC(OC2c3ccccc3CCc3ccccc32)CC1)C(=O)O)OCc1ccccc1	128 to 130
O=C(O)CCCCCCCCCCCCCCCBr	67 to 69
CC(=O)C(C(C)=O)C(=O)Nc1ccccc1	119 to 121
COc1ccc(C#Cc2cccc(C(C)N(O)C(N)=O)c2)cc1 (stereo not given)	141 to 142
